This is an account of results in patent US12558356B2, “Immunophilin binding agents and uses thereof” (The Regents of the University of California, priority 2019, dated 2026).

Read-outs that look alike come from different tables or passages of the source.

Test [1] relates to mTOR signaling in brain and skeletal muscle. Description: In vivo brain/periphery mTOR inhibition in mouse model, blocker combined with rapamycin or RapaLink-1.
Test [2] concerns the target T1, FKBP12 (Homo sapiens (Human), UniProt P62942). Description: FKBP12 binding assay (fluorescence polarization). (In general: Polarisation of emitted light reports the rotation of a fluorescent probe.)
A further test deals with p-S6 level in MCF7 cells. Description: Western blot of p-S6 level in MCF7 cells after combination treatment with Rapa/Rapalink and candidate compound (blockade score). Particulars: 24 h, p-S6 level as fraction of DMSO control; for RapaLink-1 Blockade: 10 nM Rapalink + 10 μM candidate compound. Type of test: cell-based.
Test [3] deals with panel of 485 protein kinases. Description: Kinase selectivity profiling. Particulars: 485 kinases, 10 nM inhibitor, 10 μM FKBP12. Type of test: biochemical.
The target in the next test is Src (Homo sapiens (Human), UniProt P12931). Type of test: biochemical.
Chain of Src (P12931 whole entry, species assumed, the tested form may be a part): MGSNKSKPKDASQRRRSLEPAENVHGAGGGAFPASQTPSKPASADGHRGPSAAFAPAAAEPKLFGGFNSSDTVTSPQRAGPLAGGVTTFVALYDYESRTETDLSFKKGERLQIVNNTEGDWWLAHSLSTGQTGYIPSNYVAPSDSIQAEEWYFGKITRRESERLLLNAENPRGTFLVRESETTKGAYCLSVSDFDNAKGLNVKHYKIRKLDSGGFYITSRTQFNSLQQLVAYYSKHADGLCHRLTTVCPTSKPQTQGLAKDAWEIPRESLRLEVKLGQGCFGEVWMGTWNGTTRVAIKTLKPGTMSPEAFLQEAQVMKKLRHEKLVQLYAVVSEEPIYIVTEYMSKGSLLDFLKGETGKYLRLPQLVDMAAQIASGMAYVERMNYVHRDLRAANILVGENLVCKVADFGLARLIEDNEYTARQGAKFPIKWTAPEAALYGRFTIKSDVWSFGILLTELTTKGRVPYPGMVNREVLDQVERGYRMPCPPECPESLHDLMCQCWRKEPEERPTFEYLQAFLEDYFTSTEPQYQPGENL
In test [4] the target is T2, Src kinase domain and FKBP12 (Homo sapiens (Human), UniProt P12931+P62942). Description: Ternary complex formation by size exclusion chromatography. Type of test: binding. Particulars: ~50 kDa complex.
T2 sequence (P12931 whole entry, looked up, species assumed, the tested form may be a part): as the sequence (P12931 whole entry, species assumed, the tested form may be a part) above
T2 sequence (P62942 whole entry, looked up, species assumed, the tested form may be a part): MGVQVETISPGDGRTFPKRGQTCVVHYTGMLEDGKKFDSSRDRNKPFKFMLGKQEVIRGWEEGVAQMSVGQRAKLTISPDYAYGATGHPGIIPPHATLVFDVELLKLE
A further test concerns the target DDR2 (Homo sapiens (Human), UniProt Q16832). Description: In vitro kinase assay, ATP at apparent Km. Type of test: biochemical.
The target in a further test is Csk (Homo sapiens (Human), UniProt P41240). Description: In vitro kinase assay, ATP at apparent Km. Format: biochemical.
Chain of Csk (P41240 whole entry, species assumed, the tested form may be a part): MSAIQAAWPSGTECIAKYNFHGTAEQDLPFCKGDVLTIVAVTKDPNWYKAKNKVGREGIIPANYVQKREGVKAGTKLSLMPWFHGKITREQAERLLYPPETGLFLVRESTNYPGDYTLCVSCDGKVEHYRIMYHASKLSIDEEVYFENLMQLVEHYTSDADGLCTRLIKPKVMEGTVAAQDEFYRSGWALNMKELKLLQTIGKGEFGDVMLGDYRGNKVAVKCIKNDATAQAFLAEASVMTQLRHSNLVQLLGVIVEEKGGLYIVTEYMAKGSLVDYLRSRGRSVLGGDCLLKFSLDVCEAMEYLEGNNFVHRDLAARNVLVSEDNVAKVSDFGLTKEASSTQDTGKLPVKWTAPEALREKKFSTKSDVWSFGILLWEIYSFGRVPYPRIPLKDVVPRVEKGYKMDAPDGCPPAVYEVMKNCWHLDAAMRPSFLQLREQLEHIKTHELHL
The target of test [5] is T2, Src kinase domain and FKBP12. Description: Ternary complex formation of Src, FKBP12 and compound. Type of test: binding.
Method: Fractions of 0.5 mL were collected and analyzed by SDS-PAGE.
Pulldown was performed with Jurkat cell lysate (1 mg/mL, 200 μL), supplemented with 2 μg HA-FKBP12.
For test [6], the system named is K562 cells. Description: Growth inhibition of K562 cells. Type of test: cell-based. The text has this: The unique dependency of FK506-dasatinib on FKBP proteins implied that it may be exploited to modulate the function of these molecules. […]. Meanwhile, the blocker compound […] dasatinib-treated samples (FIG. 13A, lanes 2 and 5). […].
Test [7] relates to 139 kinases captured by the probe in Jurkat cells. Description: XO44 chemoproteomic probe kinome occupancy in live cells. Type of test: cell-based. Particulars: 100 nM, among 139 kinases captured by XO44 in Jurkat cells.
Test [8] concerns p-Tyr signaling in Jurkat cells. Description: Phosphotyrosine / TCR signaling in Jurkat cells (Western blot). Format: cell-based. In general terms: A western blot detects proteins with antibodies after separation by electrophoresis.
Method: Jurkat cells (1×10^6/mL) were treated with 100 nM of the indicated compounds for 1 h, then were washed 3 times with PBS and resuspended in culture media. Samples were taken at the indicated time points and lysed immediately.
For another test, the target named is Src / HA-FKBP12 (Homo sapiens (Human), UniProt P12931+P62942). Description: Co-immunoprecipitation of Src with HA-FKBP12 in Jurkat cell lysates. Type of test: binding.
Chain of Src / HA-FKBP12 (P12931 whole entry, looked up, the tested form may be a part): as the sequence (P12931 whole entry, species assumed, the tested form may be a part) above
Chain of Src / HA-FKBP12 (P62942 whole entry, looked up, the tested form may be a part): as the sequence (P62942 whole entry, looked up, species assumed, the tested form may be a part) above
For test [9], the target named is T2, Src kinase domain and FKBP12. Description: Differential scanning fluorimetry. Format: binding.
Test [10] concerns K562 cells. Description: Growth inhibition of K562 cells. Type of test: cell-based. This is another data set of the same source.
Test [11] has as its target T1, FKBP12. Description: FKBP12 binding.
The subject of test [12] is Jurkat cells. Description: CD3 crosslinking (OKT3)-triggered T cell activation, phosphotyrosine Western blot. Format: cell-based. Particulars: for Total phospho-tyrosine level and phosphorylation of TCR signaling proteins: 100 nM.
Test [13] has as its system Jurkat cells. Description: Drug washout, phosphotyrosine recovery (residence time in cells). Format: cell-based. Particulars: 100 nM for 1 h, then drug removed.
Another test has as its system MCF7 cells. Description: FKBP dependence of Rapamycin/RapaLink-1 function in MCF7 cells. Type of test: cell-based. The following applies: MCF7 cells dosed at 50% confluency, 37° C., 24 h. On the procedure: FIG. 4. […] MCF7 cells dosed at 50% confluency, 37° C., 24 h.
The subject of a further test is glioblastoma PDX. The following applies: mice; Fan, Q. et al., 2017, Cancer Cell; cited from earlier work.
The target in the next test is KRAS^G12C and CypA (Homo sapiens (Human), UniProt P01116+P62937, G12C). Description: Complex of labeled KRAS G12C with CypA. Type of test: binding.
The mark [14] stands for this setting: 10 μM recombinant FKBP12 in assay buffer.
The mark [15] stands for this setting: standard assay conditions, no FKBP12.
[16] abbreviates: Jurkat cells stimulated with OKT3.

T1 sequence (P62942 whole entry): as the sequence (P62942 whole entry, looked up, species assumed, the tested form may be a part) above
Chain of DDR2 (Q16832 22-855, species assumed): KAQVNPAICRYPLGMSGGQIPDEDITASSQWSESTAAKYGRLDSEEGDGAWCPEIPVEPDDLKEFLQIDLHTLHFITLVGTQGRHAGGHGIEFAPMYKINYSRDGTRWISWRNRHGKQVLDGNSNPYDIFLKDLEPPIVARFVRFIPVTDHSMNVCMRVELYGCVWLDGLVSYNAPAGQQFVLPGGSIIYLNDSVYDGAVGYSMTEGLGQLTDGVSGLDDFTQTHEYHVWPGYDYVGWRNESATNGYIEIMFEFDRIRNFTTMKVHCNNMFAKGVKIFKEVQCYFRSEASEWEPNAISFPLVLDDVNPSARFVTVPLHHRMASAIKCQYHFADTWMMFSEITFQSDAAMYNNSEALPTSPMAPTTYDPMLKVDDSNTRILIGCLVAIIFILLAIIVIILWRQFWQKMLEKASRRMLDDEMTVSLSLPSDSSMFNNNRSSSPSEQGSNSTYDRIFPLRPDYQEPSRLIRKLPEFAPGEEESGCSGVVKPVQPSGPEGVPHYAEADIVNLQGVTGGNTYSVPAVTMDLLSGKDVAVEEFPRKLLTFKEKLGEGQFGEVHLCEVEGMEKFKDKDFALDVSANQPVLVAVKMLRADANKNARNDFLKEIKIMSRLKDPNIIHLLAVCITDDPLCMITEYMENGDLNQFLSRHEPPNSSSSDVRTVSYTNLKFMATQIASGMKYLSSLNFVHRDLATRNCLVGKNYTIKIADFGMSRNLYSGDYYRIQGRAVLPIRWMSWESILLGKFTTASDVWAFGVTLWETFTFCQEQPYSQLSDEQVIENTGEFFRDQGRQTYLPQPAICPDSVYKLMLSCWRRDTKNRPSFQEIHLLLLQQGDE

With `CO[C@H]1C/C(C)=C/[C@@H](CCCc2ccccn2)C(=O)C[C@H](O)[C@@H](C)[C@@H](/C(C)=C/[C@@H]2CC[C@@H](O)[C@H](OC)C2)OC(=O)[C@@H]2CCCCN2C(=O)C(=O)[C@]2(O)O[C@H]([C@@H](OC)C1)[C@@H](OC)C[C@H]2C` [ZZY05-085], the “In Vivo” value in [1] (combination with Rapalink-1, dose not given, brain) is reported as “Appears to have blocked Rapalink-1 in brain”. Also, at FKBP12 [2], the Kd (in general, the concentration at which binding is half-saturated) worked out at 1.5 nM. Also, the “RapaLink-1 Blockade” value in the test on p-S6 level in MCF7 cells is recorded as 3 (>70%).

Regarding `CO[C@H]1C/C(C)=C/[C@@H](CCCc2cccc[n+]2[O-])C(=O)C[C@H](O)[C@@H](C)[C@@H](/C(C)=C/[C@@H]2CC[C@@H](O)[C@H](OC)C2)OC(=O)[C@@H]2CCCCN2C(=O)C(=O)[C@]2(O)O[C@H]([C@@H](OC)C1)[C@@H](OC)C[C@H]2C` [ZZY05-092 / ZZY06-041], the “In Vivo” value in test [1] (1 mg/kg Rapalink-1 + 40 mg/kg compound, muscle and brain) is “Dose: 1 mg/kg Rapalink-1 + 40 mg/kg ZZY05- 092 Blocks Rapalink-1 in muscle; Potentiates Rapalink-1 in brain”. The Kd on FKBP12 [2] (read-out: Kd FKBP12) is 2.5 nM. Further, the “RapaLink-1 Blockade” value with p-S6 level in MCF7 cells was 3 (>70%).

In the case of `CO[C@H]1C[C@@H](C)C/C(C)=C/[C@@H](CCCC(=O)N2CCN(c3cc(Nc4ncc(C(=O)Nc5c(C)cccc5Cl)s4)nc(C)n3)CC2)C(=O)C[C@H](O)[C@@H](C)[C@@H](/C(C)=C/[C@@H]2CC[C@@H](O)[C@H](OC)C2)OC(=O)[C@@H]2CCCCN2C(=O)C(=O)[C@]2(O)O[C@H]1[C@@H](OC)C[C@H]2C` [FK506-dasatinib], the “Number of kinases inhibited >70% by both inhibitors” value in [3] is 23. The “Potency of inhibition upon FKBP12 supplementation” value on Src (setting [14]) is “equipotent”; on DDR2 (setting [14]) it was “inferior to dasatinib”; on Csk (setting [14]), “equipotent”. The “IC50 compared to dasatinib” value against Src (setting [15]), at DDR2 (setting [15]) and on Csk (setting [15]) was “more than ten-fold greater” each time. The “Complex formation of Src kinase domain and FKBP12” value in test [4] is recorded as “induced the formation of a stable complex”. Also, the kinase inhibition result at Src, Csk and DDR2 is “attenuated kinase inhibition”. The “Extent of kinase inhibition at 1 μM” value at DDR2 (10 μM recombinant FKBP12, 1 μM inhibitor) is “failing to fully inhibit”. Besides, the ternary complex formation result in test [5] is reported as “forms a stable ternary complex”. For the same compound, the equilibrium dissociation constant (Kd) at FKBP12 [2] (fluorescence polarization assay, read-out: Kd (binding to FKBP12)) was determined as 23 nM. The “Fold increase of IC50 on addition of RapaBlock” value with K562 cells [6] (10 μM RapaBlock) is greater than 200 fold. For the same compound, the IC50 – broadly, the midpoint of a concentration-inhibition curve – with K562 cells [6] (absent ZZY05-026 (RapaBlock)) turned out to be 0.053 nM; in the test with K562 cells [6] (with 10 μM RapaBlock), 10.2 nM. Further, in test [7], the “Number of kinases inhibited >70%” value worked out at 9. The “inhibition of TCR signaling / cellular activity” value in test [8] is “potently inhibits TCR signaling”. Moreover, the cellular retention time result in test [8] (Jurkat cells, 1 h treatment then washout, monitored over 24 h) is given as “long cellular retention time”. Also, the “Co-immunoprecipitation of Src with HA-FKBP12” value on Src / HA-FKBP12 is recorded as “co-immunoprecipitated”. In addition, the “Stabilization of both proteins toward thermal denaturation” value in [9] is listed as “to a greater extent than dasatinib alone”. Besides, in the test on K562 cells [10], the “concentration inhibiting growth of K562 cells” value is reported as “sub-nanomolar”. The “growth inhibitory activity in presence of RapaBlock” value in the test with K562 cells [10] (with RapaBlock) is given as “diminished by RapaBlock”. Also, the FKBP12 binding result at FKBP12 [11] is “maintains potent FKBP12 binding”. In addition, the “Inhibition of phosphotyrosine signaling in the presence of blocker” value in the test on Jurkat cells [12] (100 nM FK506-dasatinib + 10 μM RapaBlock) is listed as “completely neutralized”. Also, the “Total phospho-tyrosine level and phosphorylation of TCR signaling proteins” value in the test on Jurkat cells [12] (setting [16]) is recorded as “dampened”. In the test with Jurkat cells [12] (setting [16]), this compound gave a Lowest effective concentration of no more than 10 nM. Besides, in the test with Jurkat cells [12] (Jurkat cells stimulated with OKT3, read-out: EC50 (phosphotyrosine signal)), the EC50 – broadly, the concentration at which the effect is half-maximal – was determined as 3.4 nM. The “Time after drug washout to restored phosphotyrosine signal” value in the test with Jurkat cells [13] was greater than 24 h.

As to `Cc1nc(Nc2ncc(C(=O)Nc3c(C)cccc3Cl)s2)cc(N2CCN(CCO)CC2)n1` [Dasatinib, dasatinib, reference compound], the IC50 was 0.063 nM in the test with K562 cells [6] (Homo sapiens, K562, absent ZZY05-026 (RapaBlock)) and 0.16 nM with K562 cells [6] (Homo sapiens, K562, with 10 μM RapaBlock). Also, in [7], the “Number of kinases inhibited >70%” value was 9. Further, the “Total phospho-tyrosine level and phosphorylation of TCR signaling proteins” value with Jurkat cells [12] (setting [16]) was “dampened”. In addition, in the test on Jurkat cells [13], the “Time after drug washout to restored phosphotyrosine signal” value was no more than 1 h.

`CO[C@H]1C[C@@H]2CC[C@@H](C)[C@@](O)(O2)C(=O)C(=O)N2CCCC[C@H]2C(=O)O[C@H]([C@H](C)C[C@@H]2CC[C@@H](O)[C@H](OC)C2)CC(=O)[C@H](C)/C=C(\C)[C@@H](O)[C@@H](OC)C(=O)[C@H](C)C[C@H](C)/C=C/C=C/C=C/1C` [Rapamycin, rapamycin]: the “dependence of function on FKBP” value with MCF7 cells is “FKBP is essential for the function”.

On to `CO[C@@H]1C[C@@H]2CC[C@@H](C)[C@@](O)(O2)C(=O)C(=O)N2CCCC[C@@H]2C(=O)O[C@H]([C@H](C)C[C@H]2CC[C@H](OCCOCc3cn(CCOCCOCCOCCOCCOCCOCCOCCOCCC(=O)NCCCCn4nc(-c5ccc6oc(N)nc6c5)c5c(N)ncnc54)nn3)[C@H](OC)C2)CC(=O)[C@H](C)/C=C(\C)[C@H](O)[C@@H](OC)C(=O)[C@H](C)C[C@H](C)/C=C/C=C/C=C/1C` [RapaLink-1], for which, in the test on glioblastoma PDX, the “growth of glioblastoma PDX” value was “suppresses growth”. Moreover, in the test on MCF7 cells, the “dependence of function on FKBP” value is given as “FKBP is essential for the function”.

Regarding `CCC(C)(C)C(=O)C(=O)N1CCCC[C@H]1C(=O)O[C@H](CCc1ccc(OC)c(OC)c1)c1cccc(NC(=O)Cc2cccc[n+]2[O-])c1` [ZZY03-087], in test [1] (combination with rapamycin, muscle and brain), the “In Vivo” value was “Blocks rapamycin in muscle, potentiates rapamycin in brain”. On FKBP12 [2] (read-out: Kd FKBP12), the Kd stood at 28.8 nM. Further, the “Rapamycin Blockade” value with p-S6 level in MCF7 cells (10 nM Rapa + 10 μM candidate compound) was 3 (>70%). For the same compound, the “RapaLink-1 Blockade” value in the test with p-S6 level in MCF7 cells was 0 (<20%).

Regarding `C=CC(=O)N1CCN(c2nc(NCCC(=O)NCCNC(=O)CCC[C@@H](C)[C@@H](O)[C@H]3C(=O)N[C@@H](CC)C(=O)N(C)CC(=O)N(C)[C@@H](CC(C)C)C(=O)N[C@@H](C(C)C)C(=O)N(C)[C@@H](CC(C)C)C(=O)N[C@@H](C)C(=O)N[C@H](C)C(=O)N(C)[C@@H](CC(C)C)C(=O)N(C)[C@@H](CC(C)C)C(=O)N(C)[C@@H](C(C)C)C(=O)N3C)nc3c(F)c(-c4c(O)cccc4F)c(Cl)cc23)CC1` [ZZY07-014], at KRAS^G12C and CypA, the “melting curve of KRAS•CypA•compound complex” value is recorded as 2-stage melting curve.

In the case of `CO[C@H]1C/C(C)=C/[C@@H](CCCC(=O)N2CCN(c3cc(Nc4ncc(C(=O)Nc5c(C)cccc5Cl)s4)nc(C)n3)CC2)C(=O)C[C@H](O)[C@@H](C)[C@@H](/C(C)=C/[C@@H]2CC[C@@H](O)[C@H](OC)C2)OC(=O)[C@@H]2CCCCN2C(=O)C(=O)[C@]2(O)O[C@H]([C@@H](OC)C1)[C@@H](OC)C[C@H]2C` [ZZY05-022], in [8] (Jurkat cells, 100 nM, 1 h, washed 3 times with PBS), the “durability of effect after washout” value is given as “durable after washout”.
